In patent publication US9073863B2, “Cyanoquinoline compounds having activity in correcting mutant-CFTR processing and increasing ion transport and uses thereof” (The Regents of the University of California, priority 2011, dated 2015):

Assays:
Format in all cases: cell-based
[1] = biological target: T1, ΔF508-CFTR (Homo sapiens, UniProt P13569, DEL508-508); experiment: Short-circuit current (apical membrane chloride current) corrector assay in ΔF508-CFTR expressing FRT cells
T1 construct: expressed in transfected cells; host or cells: Fischer rat thyroid (FRT) epithelial cells, stably transfected
Procedure: Short-circuit current measurements. ΔF508-CFTR-expressing FRT cells were cultured on Snapwell inserts for 7-9 days. For corrector testing, test compounds were incubated with FRT cells for 18-24 h at 37° C. prior to measurements. For potentiator testing, the FRT cells were incubated for 18-24 h at 27° C. prior to measurements. The basolateral solution contained 130 mM NaCl, 2.7 mM KCl, 1.5 mM KH2PO4, 1 mM CaCl2, 0.5 mM MgCl2, 10 mM glucose, and 10 mM Na-HEPES (pH 7.3). In the apical bathing solution, 65 mM NaCl was replaced by Na gluconate, and CaCl2 was increased to 2 mM. Solutions were bubbled with air and maintained at 37° C. The basolateral membrane was permeabilized with 250 μg/ml amphotericin B. Hemichambers were connected to a DVC-1000 voltage clamp (World Precision Instruments Inc.) via Ag/AgCl electrodes and 1 M KCl agar bridges for recording of short-circuit current.
Short-circuit current was measured as a definitive electrophysiological assay to verify Compound 22 corrector action. Apical membrane chloride current was measured in ΔF508-CFTR expressing FRT cells after basolateral membrane permeabilization and in the presence of a transepithelial chloride gradient (apical, 65 mM; basolateral, 130 mM). In FIG. 3C, incubation with Corr-4a (5 μM) is shown as reference (right). Forskolin (20 μM), genistein (50 μM) and CFTRinh-172 (10 μM) were added where indicated. […] FIG. 3D summarizes Compound 22 concentration dependence data from short-circuit current studies. […]
Short-circuit current was measured in an electrophysiology assay to verify corrector activity. Apical membrane chloride current was measured in ΔF508-CFTR expressing FRT cells after basolateral membrane permeabilization and in the presence of a transepithelial chloride gradient. […] To assay potentiator activity apical membrane chloride current was measured after low-temperature rescue, in response to CP-3 addition. CP-3 concentration-dependent increases in apical membrane current were measured in the presence of 5 μM forskolin. […]

[2] = biological target: T2, G551D-CFTR (Homo sapiens, UniProt P13569, G551D); experiment: Short-circuit current in FRT cells expressing G551D-CFTR; details: in the presence of forskolin, vs genistein
T2 construct: expressed in transfected cells; host or cells: Fischer rat thyroid (FRT) epithelial cells, stably transfected
Procedure: Potentiator studies were also performed in FRT cells expressing G551D-CFTR, a CF-causing CFTR mutation with defective channel gating but not plasma membrane trafficking. […] Where indicated, genistein (100 μM) and CFTRinh-172 (10 μM) were added. Graphs are representative of 3 sets of measurements. […] Measurements were made in the presence of 20 μM forskolin.

[3] = biological target: T1, ΔF508-CFTR; experiment: Potentiator assay by YFP/iodide fluorescence quenching in ΔF508-CFTR expressing A549 cells
Procedure: Representative fluorescence quenching curves (FIG. 6B (top)) shown with deduced Compound 22 and genistein concentration dependence (FIG. 6B (bottom), SEM, n=4). Fluorescence plate reader assays in FIG. 6B confirmed that Compound 22 activated G551D-CFTR in the presence of forskolin, with lower maximal efficacy than genistein.
To test whether Compound 22 is active in a different cell background, potentiator and corrector assays were performed in ΔF508-CFTR transfected A549 cells, which are of human lung epithelial origin. […] Apparent EC50 for Compound 22 potentiator activity was about 8 μM (FIG. 6B). […] (FIG. 6C, top). Compound 22 was further tested for corrector activity in A549 cells under the low-temperature synergy condition; however, DF508-CFTR was fully activated by forskolin ([…]) and genistein ([…]) in this cell model (FIG. 6C, bottom).

T1 sequence (P13569 with tags, fused parts or gaps DEL508-508): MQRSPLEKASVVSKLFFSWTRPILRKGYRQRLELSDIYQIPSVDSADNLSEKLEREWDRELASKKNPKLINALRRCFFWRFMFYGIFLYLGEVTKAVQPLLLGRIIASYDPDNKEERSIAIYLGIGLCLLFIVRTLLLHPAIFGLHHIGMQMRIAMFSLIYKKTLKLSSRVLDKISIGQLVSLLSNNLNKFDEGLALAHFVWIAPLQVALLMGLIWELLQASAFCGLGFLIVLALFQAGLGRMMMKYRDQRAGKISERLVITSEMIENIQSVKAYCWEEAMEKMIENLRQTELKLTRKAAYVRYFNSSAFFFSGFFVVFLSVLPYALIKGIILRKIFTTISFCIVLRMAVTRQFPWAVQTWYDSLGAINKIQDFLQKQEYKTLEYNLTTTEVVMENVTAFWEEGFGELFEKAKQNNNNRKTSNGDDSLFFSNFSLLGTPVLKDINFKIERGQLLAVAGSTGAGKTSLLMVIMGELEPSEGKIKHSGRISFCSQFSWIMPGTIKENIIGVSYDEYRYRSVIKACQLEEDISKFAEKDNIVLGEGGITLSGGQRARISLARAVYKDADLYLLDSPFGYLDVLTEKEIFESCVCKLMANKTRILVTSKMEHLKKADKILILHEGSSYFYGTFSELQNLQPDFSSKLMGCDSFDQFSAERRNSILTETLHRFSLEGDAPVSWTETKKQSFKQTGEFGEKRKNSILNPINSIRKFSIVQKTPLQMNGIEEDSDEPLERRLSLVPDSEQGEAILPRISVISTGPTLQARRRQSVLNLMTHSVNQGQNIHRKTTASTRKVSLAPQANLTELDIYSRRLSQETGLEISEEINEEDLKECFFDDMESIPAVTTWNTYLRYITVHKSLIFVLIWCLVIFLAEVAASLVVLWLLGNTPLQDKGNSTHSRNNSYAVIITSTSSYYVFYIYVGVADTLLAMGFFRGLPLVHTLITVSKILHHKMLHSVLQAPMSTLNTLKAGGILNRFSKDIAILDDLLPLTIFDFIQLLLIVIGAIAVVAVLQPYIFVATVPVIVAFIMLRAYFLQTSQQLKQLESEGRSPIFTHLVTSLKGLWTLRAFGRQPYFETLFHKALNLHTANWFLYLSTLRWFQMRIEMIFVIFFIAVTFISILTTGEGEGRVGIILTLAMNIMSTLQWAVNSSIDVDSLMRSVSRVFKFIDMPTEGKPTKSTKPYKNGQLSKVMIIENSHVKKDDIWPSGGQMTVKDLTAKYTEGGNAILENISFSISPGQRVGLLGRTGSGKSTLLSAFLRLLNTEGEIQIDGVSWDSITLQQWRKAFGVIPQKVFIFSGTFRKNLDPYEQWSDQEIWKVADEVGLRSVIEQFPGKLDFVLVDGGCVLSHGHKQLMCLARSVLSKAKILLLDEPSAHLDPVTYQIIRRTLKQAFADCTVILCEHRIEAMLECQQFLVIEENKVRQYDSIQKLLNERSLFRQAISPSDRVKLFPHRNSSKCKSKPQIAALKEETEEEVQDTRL
T2 sequence (P13569 whole entry G551D): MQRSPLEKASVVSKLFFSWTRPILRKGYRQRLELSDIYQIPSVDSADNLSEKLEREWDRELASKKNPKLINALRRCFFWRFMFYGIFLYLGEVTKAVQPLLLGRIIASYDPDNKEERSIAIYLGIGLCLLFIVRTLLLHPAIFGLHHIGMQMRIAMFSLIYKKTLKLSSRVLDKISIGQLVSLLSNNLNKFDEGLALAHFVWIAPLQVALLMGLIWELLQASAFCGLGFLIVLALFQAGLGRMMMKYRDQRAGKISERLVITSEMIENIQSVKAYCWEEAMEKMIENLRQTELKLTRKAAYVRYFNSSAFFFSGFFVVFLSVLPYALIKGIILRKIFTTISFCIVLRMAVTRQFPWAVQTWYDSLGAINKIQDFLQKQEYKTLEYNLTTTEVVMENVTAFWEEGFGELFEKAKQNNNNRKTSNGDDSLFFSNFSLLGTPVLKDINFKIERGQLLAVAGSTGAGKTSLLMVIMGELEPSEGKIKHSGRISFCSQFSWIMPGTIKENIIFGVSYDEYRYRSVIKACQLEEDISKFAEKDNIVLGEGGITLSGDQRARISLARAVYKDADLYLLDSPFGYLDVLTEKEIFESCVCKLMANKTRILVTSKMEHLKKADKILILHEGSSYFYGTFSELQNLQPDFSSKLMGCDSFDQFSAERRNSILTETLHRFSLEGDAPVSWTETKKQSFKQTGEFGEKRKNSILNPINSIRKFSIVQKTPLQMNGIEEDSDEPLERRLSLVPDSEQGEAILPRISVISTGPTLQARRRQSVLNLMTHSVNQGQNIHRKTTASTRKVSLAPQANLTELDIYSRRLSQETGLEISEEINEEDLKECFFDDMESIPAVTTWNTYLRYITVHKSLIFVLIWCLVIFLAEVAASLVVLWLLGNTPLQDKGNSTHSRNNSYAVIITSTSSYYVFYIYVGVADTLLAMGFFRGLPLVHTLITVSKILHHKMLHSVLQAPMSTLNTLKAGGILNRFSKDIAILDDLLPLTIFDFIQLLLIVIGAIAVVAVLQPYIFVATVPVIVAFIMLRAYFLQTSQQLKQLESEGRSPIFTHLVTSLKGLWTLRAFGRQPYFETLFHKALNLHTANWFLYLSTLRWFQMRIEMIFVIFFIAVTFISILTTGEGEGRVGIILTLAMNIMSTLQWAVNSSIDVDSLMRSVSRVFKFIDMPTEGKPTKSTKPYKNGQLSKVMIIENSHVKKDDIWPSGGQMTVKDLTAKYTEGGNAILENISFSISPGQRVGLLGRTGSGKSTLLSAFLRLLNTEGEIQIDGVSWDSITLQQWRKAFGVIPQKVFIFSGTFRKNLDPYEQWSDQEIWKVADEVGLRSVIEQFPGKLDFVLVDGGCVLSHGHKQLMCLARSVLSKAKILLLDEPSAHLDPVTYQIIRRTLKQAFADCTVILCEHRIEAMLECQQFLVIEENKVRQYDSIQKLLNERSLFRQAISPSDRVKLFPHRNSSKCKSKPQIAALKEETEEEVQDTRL

- potentiator action on G551D-CFTR chloride current [2]: weak potentiator
- potentiator activity in A549 cells, in words [3]: comparable to that in FRT cells
- EC50 ([3]; A549 cells, read-out: Apparent EC50 for potentiator activity): ~8 µM
Structure (SMILES): COc1cccc(C(=O)NCCNc2nc3cc(C)cc(C)c3cc2C#N)c1 [Compound 22, N-(2-((3-Cyano-5,7-dimethylquinolin-2-yl)amino)ethyl)-3-methoxybenzamide]
- increase in apical membrane current (corrector) ([1]; 5 and 10 μM, 18-24 h incubation): comparable to that conferred by 5 μM Corr-4a
- corrector and potentiator maximum efficacy ([1]; electrophysiological analysis): comparable to those of the bithiazole Corr-4a and the flavone genistein
